Laboratory results: patent US4182887A, “3-Amino-4-phenyl-1H-pyrazolo[3,4-b]pyridines and salts thereof” (Boehringer Ingelheim GmbH, priority 1976, dated 1980)

Assays:
[1] = Acute toxicity in white mice after oral application of a single dose; format: in vivo; details: mouse, in vivo, observation time 14 days
Protocol: (§1) The acute toxicity of the compounds was determined in white mice (observation time: 14 days) after oral application of a single dose: […]

white mice = assay: as above; format: in vivo; details: observation time 14 days, at the dose given in the same line
Protocol: as §1

[2] = tested on: thrombocyte aggregation in platelet-rich plasma; assay: Determination of effect on platelet aggregation by the method of Born and Cross (collagen-induced thrombocyte aggregation); format: cell-based; details: 10 min, platelet-rich plasma of healthy human donors, 10 min incubation at 37° C., read-out: ED50 (dose leading to a 50% inhibition of aggregation compared with the control group)
Protocol: 1. Determination of effect on platelet aggregation by the method of Born and Cross, J. Physiol. 170, 397 (1964):
The thrombocyte aggregation was measured in the platelet-rich plasma of healthy human donors. The course of change of the optical density of the platelet suspension was measured and recorded photometrically after the addition of commercial collagen containing 1 mg of collagen fibrils per ml. From the angle of inclination of the density curve, the rate of aggregation was estimated (Vmax). The optical density (O.D.) was taken as the point on the curve where the most light was transmitted.
As small doses of collagen as possible were chosen, but sufficient to give irreversible aggregation. To provoke maximum aggregation, about 0.01 ml of the collagen solution was added to 1 ml of platelet-rich plasma.
The test compounds were incubated at 37° C. for 10 minutes with the plasma before aggregation was provoked. The compounds were dissolved with a small quantity of hydrochloric acid or dimethyl formamide, and the solution was diluted to the desired final concentration with distilled water.
The dose leading to a 50% inhibition of aggregation compared with the control group (E D50) was determined.

Row | Structure (SMILES) | LD50 at 336 h [1] [mg/kg] | animals died (mortality in acute toxicity test) (white mice) | IC50 [2] [nM]
1 | Nc1n[nH]c2nc(N3CCOCC3)cc(-c3ccccc3)c12 [A, 3-Amino-6-morpholino-4-phenyl-1H-pyrazolo[3,4-b]pyridine] | > 250 | 0 out of 10 | 1000
2 | Nc1n[nH]c2nc(N3CCSCC3)cc(-c3ccccc3)c12 [B, 3-Amino-4-phenyl-6-thiomorpholino-1H-pyrazolo[3,4-b]pyridine] | > 250 | 0 out of 10 | 40
3 | Nc1n[nH]c2nc(N3CCCCC3)cc(-c3ccccc3)c12 [C, 3-Amino-4-phenyl-6-piperidino-1H-pyrazolo[3,4-b]pyridine] | > 250 | 0 out of 10 | 400
4 | Nc1n[nH]c2nc(N3CCCCCC3)cc(-c3ccccc3)c12 [Compound E, 3-Amino-6-hexamethyleneimino-4-phenyl-1H-pyrazolo[3,4-b]pyridine] | > 5000 | 3 out of 10 | 40
5 | CC1CCCN(c2cc(-c3ccccc3)c3c(N)n[nH]c3n2)C1 (stereo not shown) [D, 3-Amino-6-(3-methyl-piperidino)-4-phenyl-1H-pyrazolo[3,4-b]pyridine] | > 250 | 0 out of 10 | 300
6 | CCN(CC)c1cc(-c2ccccc2)c2c(N)n[nH]c2n1 [F, 3-Amino-6-diethylamino-4-phenyl-1H-pyrazolo[3,4-b]pyridine] | > 1500 | 0 out of 10 | 300
7 | COc1ccc(-c2cc(N3CCCCC3)nc3[nH]nc(N)c23)cc1 [G, 3-Amino-4-(4'-methoxy-phenyl)-6-piperidino-1H-pyrazolo [3,4-b]pyridine] | > 1500 | 0 out of 10 | 1000
8 | Nc1n[nH]c2nc(N3CCCCCC3)cc(-c3ccc(F)cc3)c12 [H, 3-Amino-4-(4'-fluoro-phenyl)-6-hexamethyleneimino-1H-pyrazolo[3,4-b]pyridine] |  |  | 300
9 | Nc1cc(-c2ccccc2)c2c(N)n[nH]c2n1 [I, 3,6-Diamino-4-phenyl-1H-pyrazolo[3,4-b]pyridine, reference compound] | > 1500 | 0 out of 10 | 100000
